Data taken from US6046177A, “Sulfoalkyl ether cyclodextrin based controlled release solid pharmaceutical formulations” (Cydex, Inc., priority 1999, dated 2000).
Values after ≈ are worked out from the molar mass of the structure shown.

How the values were obtained:
[1] = osmotic pump tablet with (SBE)7M -β-CD; cited from earlier work
[2] = Release of prednisolone and SBE7 β-CD from uncoated controlled release tablet cores; type: physicochemical; settings: for effect of HPMC viscosity 15,000 to 100,000 cps on release: 5% PD
Procedure: The above ingredients are used to make a 300 mg tablet core having a controlled release profile. The ingredients were blended by hand and individual tablets were prepared on a carver press under a pressure of 1 ton for 7 seconds. The tablets were prepared using a 5/16" standard cup concave tooling. The determination of the release profile by dissolution was conducted according to USP method 2 at 37°, 100 rpm with paddles in a 900 ml water bath. The amounts of prednisolone (PD) released was determined by HPLC, and the amount of SBE7 -βCD released was determined by TNS as described herein.

physchem = assay: physchem
Procedure: (SBE)7 -β-CD (0-0.1 M) solutions were made in different buffer solutions at pH values ranging from 4.0 to 7.0 (citrate for 4 & 5; phosphate for 6 &7). […] The solutions were centrifuged for 10 min. at 2500 rpm. 20 μl of the supernatant was carefully sampled using a 100 μl gas-tight Hamilton Syringe (Hamilton, Nev.), diluted with mobile phase and analyzed by HPLC. The solubility data was then used to determine the binding constant using the method of Higuchi and Connors for AL-type phase behavior.

[3] = In vitro release of dipyridamole from coated tablets (USP apparatus II); type: physicochemical
Procedure: The sample volume was 20 μl and the UV detection wavelength was […] (Shimadzu 6A, Shimadzu, Japan). A mobile phase consisting of 70% methanol and 30% ammonium phosphate buffer (pH 5.0) was passed through the column at a flow rate of 1.5 ml/min. (SBE)7m -β-CD was detected by using a fluorimetric assay, 0.2 ml of a 1 mM solution of 2,6-toluidino-naphthalene-sulfonate to 0.8 ml of the sample. This solution was then excited at 325 nm and the emitted fluorescence detected at 455 nm using a Perkin 25 Elmer (Perkin-Elmer, CT) Fluorescence detector.
The ground physical mixture was then sieved through a 200 mesh (75 μm) screen. This process was repeated twice. This mixture was always stored in a desiccator when not used.
The dissolution die consists of a cylindrical stainless steel center-piece,a stainless steel platform, a stainless steel top cover, two Teflon sheets (top and bottom) and Teflon inserts. The cylindrical center-piece has a hole (radius=7.5 mm ) at the center in which the tablet is compressed. Both, the stainless steel top cover and top Teflon sheet have holes of same radius at the center. The center-piece was inverted and screwed onto the platform. […] The tablet core was compressed with a force of one ton for one minute using Carver press (Fred Carver Inc., NJ). The punch was carefully removed from the center-piece.
™ coatings were made by dissolving 5% (w/w) of […]™ R or S (Huls America, NJ), 5% of urea (SIGMA, MO) or polyethylene glycol (PEG 3350, SIGMA, MO) and 0.75% of triethyl Citrate (TEC, SIGMA, MO) in 89.25% ethanol. This was carried out until a clear solution was obtained. Cellulose acetate (CA-320S7 Eastman Chemical Co., TN) and hydroxypropyl methylcellulose phthalate (HPMCP, Eastman Chemical Co., TN) polymeric solutions were made by dissolving 5% of polymers and 1% of TEC in 94% of solvent containing equal amounts of methylene chloride and methanol. The ratio of CA to HPMCP was varied from 50:50 to 75:25 but the total amount of polymer was always maintained at 5%. The dissolution was carried out until clear solutions were obtained.
This coating solution was then air sprayed directly on the tablet surface under constant air flow (approx. 70° C.). The coated tablets were dried additionally for a period of 15 minutes under the same air flow. The tablets were additionally dried for a period of 12-16 hr. at room temperature. The thickness of the membrane was assumed to be the difference of thickness of the tablet after and before coating. The thickness measurements were carried out using a Screw-gauge micrometer.
The release studies for tablets coated with Eudragit L and CA: HPMCP were conducted by placing the dissolution die in a USP dissolution apparatus II (Vanderkamp 600, VanKel Industries Inc.) containing 450 ml of HCl (pH 1.5, 37° C. and 100 r.p.m.). […] 1.5 ml samples were collected periodically and equal amounts of dissolution medium was returned to the dissolution vessel. For the CA: HPMCP coated tablet, 100% release was determined by removing the membrane from the die and allowing the drug dissolution to be complete. The release experiments for tablets coated with Eudragit were conducted similarly in 450 ml of HCl for the first 2 hours, then placed in a phosphate buffer (pH 6.4) for additional 5 hr. and then placed in a phosphate buffer (pH 7.2). The release conditions and procedures were as described above.
0.5 ml of the sample was diluted by half in the mobile phase and the diluted samples were then analyzed using HPLC assay to determine drug concentrations as described in a later section.

[4] = as above; type: physicochemical; settings: for release of DP without SAE-CD: core DP, citric acid, fructose-lactose
pKa of dipyridamole = type: physicochemical; settings: basic drug
[5] = in words; cited from earlier work
[6] = cited from earlier work; for dissolution of complex vs. physical mixture: β-cyclodextrin complex vs. physical mixture
[7] = gels with methyl-β-cyclodextrin; cited from earlier work

C[C@]12C=CC(=O)C=C1CC[C@@H]1[C@@H]2[C@@H](O)C[C@@]2(C)[C@H]1CC[C@]2(O)C(=O)CO [prednisolone]
release profile [1]: sustained release profile is provided by the osmotic pump tablet so long as the semipermeable membrane is present
effect of HPMC viscosity 15,000 to 100,000 cps on release ([2]; 35% SAE-CD, 50% HPMC, 10% lactose, FIG. 20): substantially independent of the viscosity of the HPMC
effect of HPMC viscosity 15,000 to 100,000 cps on release ([2]; 70% SAE-CD, 25% HPMC, FIG. 19): the rate of delivery of the PD and the overall amount of PD delivered increases
effect of decreasing SAE-CD (increasing lactose) on delivery ([2]; PD 5%, HPMC approximately 25%, FIG. 17): the rate of delivery of the PD and the overall amount of PD delivered decrease
effect of increasing release rate modifier ratio on release rate ([2]; PD 5%, SAE-CD 35%, HPMC 25% to 50%, FIG. 18): the release rate of the drug is decreased
PD released ([2]; control HPMC K100M, no cyclodextrin, eleven hours, FIG. 19): approximately 50 % by weight
PD released ([2]; control HPMC K100M, no cyclodextrin, six hours, FIG. 19): approximately 30 % by weight
PD released ([2]; no cyclodextrin, HPMC, after eleven hours, FIG. 16): approximately 50 % by weight
drug released ([2]; release rate modifier:drug approximately 5:1, 12 hours, FIG. 18): 75-90%
drug released ([2]; release rate modifier:drug approximately 5:1, about six hours, FIG. 18): 65-75%
drug released ([2]; release rate modifier:drug approximately 10:1, 12 hours, FIG. 18): 55-60%
drug released ([2]; release rate modifier:drug approximately 10:1, about six hours, FIG. 18): 40-50%
PD released ([2]; with SAE-CD, HPMC, approximately six hours, FIG. 16): greater than 90%
PD released ([2]; with SAE-CD, HPMC, eleven hours, FIG. 16): substantially complete delivery of the drug

OCCN(CCO)c1nc(N2CCCCC2)c2nc(N(CCO)CCO)nc(N3CCCCC3)c2n1 [dipyridamole]
solubility at 24 h (physchem; citrate buffer with sbe7 β-cd, pH 4): 16000 µg/mL (≈ 31700 µM)
solubility at 24 h (physchem; citrate buffer, pH 4, aqueous buffer): 1990 µg/mL (≈ 3940 µM)
solubility at 24 h (physchem; phosphate buffer with sbe7 β-cd, pH 7): 504 µg/mL (≈ 999 µM)
solubility at 24 h (physchem; phosphate buffer, pH 7, aqueous buffer): 3.56 µg/mL (≈ 7.05 µM)
solubility (physchem; water): 3.6 µg/mL (≈ 7.13 µM)
type of release ([3]; 90 μm film, CA:HPMCP 1:1, FIG. 14): delayed release
type of release ([3]; 105 μm film, CA:HPMCP 6:4, FIG. 14): combined delayed and controlled release
effect of film thickness on release profile ([3]; CA/HPMCP film 90 μm to 170 μm, FIG. 13): did not appear to substantially affect the release profile
type of release ([3]; CA:HPMCP 1:1 film, FIG. 12): combined delayed and controlled release
effect of film thickness on release profile ([3]; EUDRAGIT-L/urea film, physical mixture core, FIG. 10): independent of film thickness but dependent upon solution pH
pH at which DP is released ([3]; EUDRAGIT-S and urea film, FIG. 11): ~7.2
pH at which DP is released ([3]; comparison (EUDRAGIT-L and urea film)): about 6.8
release profile, SBE7 β-CD vs. DP ([4]; EUDRAGIT-L film 150 μm, pH raised from 1.5 to 6.8 after two hours, FIG. 9): substantially the same release profile
release delay ([4]; EUDRAGIT-L film, pH 1.5 to 6.8, FIG. 9): two hour delay
release of DP without SAE-CD ([4]; CA:HPMCP (50:50) 120 μm film): no release of DP was obtained
release of DP without SAE-CD ([4]; EUDRAGIT-L and urea (50:50) 120 μm film): incomplete release of DP was observed
pKa (pKa of dipyridamole): 6.28
bioavailability [5]: low and variable bioavailability

CN1C(=O)C(O)N=C(c2ccccc2)c2cc(Cl)ccc21 (centres unmarked) [temazepam]
dissolution of complex vs. physical mixture [6]: In only one of several examples did Martini et al. obtain a physical mixture formulation having a dissolution profile comparable to that of the preformed complex formulation

CC(=O)Nc1ccc(O)cc1 [acetaminophen]
dissolution of complex vs. physical mixture [6]: significantly better, dissolution profile

COc1ccc2c(c1)c(CC(=O)O)c(C)n2C(=O)c1ccc(Cl)cc1 [indomethacin]
dissolution of complex vs. physical mixture [6]: significantly better, dissolution profile

CN1C(C(=O)Nc2ccccn2)=C(O)c2ccccc2S1(=O)=O [piroxicam]
dissolution of complex vs. physical mixture [6]: significantly better, dissolution profile

N=C(N)NCC1CCC(C(=O)Oc2ccccc2C(=O)OCc2ccccc2)CC1 (centres unmarked) [benexate]
solubility of complex vs. physical mixture ([6]; cyclodextrin complex vs. physical mixture or neat): significantly increased solubility

CC(=O)CC(c1ccccc1)c1c(O)c2ccccc2oc1=O (centres unmarked) [warfarin]
dissolution of complex vs. physical mixture [6]: significantly better, dissolution profile

Cc1cccc(N(C)C(=S)Oc2ccc3ccccc3c2)c1 [tolnaftate]
dissolution of complex vs. physical mixture [6]: improved dissolution over the physical mixture or free drug

O=C1CN=C(c2ccccc2Cl)c2cc([N+](=O)[O-])ccc2N1 [clonazepam]
flux rate of clonazepam [7]: improves the flux rate

CCC1(c2ccccc2)C(=O)NC(=O)NC1=O [phenobarbitone]
controlled dissolution, preformed complex vs. physical mixture ([6]; β-cyclodextrin): preformed complex performs substantially better than the physical mixture
